# Reference: a melting point compilation (Tetko et al.; mined from patent text by program, amines drawn as free bases though some values may be those of a salt)
row,SMILES,melting point [°C]
1,O=C(NCCN1CCC2(CC1)C(=O)NCN2c1ccccc1)c1ccc(Cl)cc1,201
2,CSc1nc(Cl)c(C#N)c(N2CCc3ccccc3CC2)n1,144 to 150
3,CC(C)(C)OC(=O)N1CC=C(c2ccc(N)c([N+](=O)[O-])c2)CC1,111 to 112
4,CNCC1Cc2cc(-c3ccccc3)cc(-c3ccc(C)cc3)c2O1 (stereo unspecified),> 250
5,CC(C)(Oc1ccc(CCCOc2ccc(-c3ccccc3)cc2)cc1)C(=O)O,130 to 133
6,CCOc1cc(OCCCc2cn(-c3ccc(C(F)(F)F)cn3)nc2O)ccc1CCC(=O)O,192 to 194
7,CCCCCCCCCCCCCCCCN(C)S(=O)(=O)c1ccc(Cl)c([N+](=O)[O-])c1,74 to 75
8,COc1ccc2c(c1)CN(CCc1ccc([N+](=O)[O-])cc1)CC2,92 to 94
9,CCCCS(=O)(=O)Nc1ccccc1COc1cccc2cccnc12,88 to 89
10,O=C(CS(=O)(=O)c1ccccc1)OC1CCCCC1,35 to 38
11,COc1cc(OC)nc(Oc2cccc(Oc3nc(OC)cc(OC)n3)c2C)n1,140
12,CCCCc1ccc(-c2c(C)[nH]c(=O)n2C)cc1,180
13,CN(C)c1c(CS(=O)(=O)C2=NOC(C)(C)C2)c(C(F)(F)F)nn1-c1ccccc1,150 to 151
14,COc1cc(N2CCNCC2)cc(OC)c1OC,73 to 77
15,OCC1OC(c2c(Cl)nc3cc(Cl)c(Cl)cn23)C(O)C1O (stereo unspecified),239 to 240
16,CCCOc1ncc(I)cc1C(=O)Nc1c(CC)nn(CCN2CCOCC2)c1C(N)=O,180
17,O=C(O)CCCCNC(=O)CCCCC1CCSS1 (stereo unspecified),98 to 100
18,O=C(Nc1ccc(Cl)cc1)c1c(O)c2cccnc2n(-c2ccccc2)c1=O,281 to 286
19,NC(=O)CN(C(=O)CCCOc1ccc([N+](=O)[O-])c(C=O)c1)C1CCCCC1,104 to 105
20,CCOc1cccc(NC(=O)NC2N=C(c3ccccc3F)c3ccccc3N(CC(=O)N3CC4CCC(CC4)C3)C2=O)c1 (stereo unspecified),158 to 166
21,O=S(=O)(NCCCO)c1ccc(Nc2nccc(-c3ccc(C(F)(F)F)cc3)n2)cc1,204 to 205
22,O=C1c2ccccc2C(=O)N1Cc1ccc(SC(F)(F)F)cc1,130 to 132
23,Cn1c2c(c(=O)n(-c3cc(C(=O)O)c(Cl)cc3F)c1=O)CCC2,270 to 273
24,CC(=Cc1ccccc1)c1ccc2c(c1)C(C)(C)CCS2,81 to 83

row,SMILES,melting point [°C]
1,C[C@H](N)Cn1ncc2ccc3oc(C(N)=O)nc3c21,60 to 65
2,COc1cc(OC)c(-c2cccs2)cc1/C=C/C(=O)c1ccc(S(=O)(=O)NCc2cccnc2)cc1,167 to 168
3,O=C(C=Cc1ccc2c(c1)OCO2)C1CC1,85 to 87
4,O=C(O)C(=NOC1CCCC1)c1ccco1,96.6 to 97.7
5,CN1N=C(c2ccccc2Cl)N(C)N=C1c1ccccc1Cl,148 to 149
6,COc1ccc(-c2c(Cl)c(CN3C(=O)CCC3=O)nc3sc4c(c23)CCNC4)cc1,225 to 226
7,CC(C)n1nc(-c2sc(NC(=O)c3ccc(CN(C)CCc4ccccn4)cc3)nc2-c2ccccc2)ccc1=O,172 to 174
8,C=CC(C)ONC(=O)c1nc(-c2ccc(Cl)c(OC)c2F)cc(N)c1Cl (stereo unspecified),176 to 179
9,CCOC(=O)c1ccc(-c2nn(Cc3ccc(Cl)s3)c3ccccc23)o1,124 to 126
10,C=Cc1cc(C)cc(C)c1CC(=O)NC1(C(=O)OC)CCN(OC)CC1,142 to 144
11,COc1c(-c2ccc(S(C)(=O)=O)cc2)cnn(-c2ccc(F)c(F)c2)c1=O,113 to 115
12,COc1cc2cc3c(=O)nc[nH]c3nc2cc1OC,311 to 312
13,COc1ccc(C2(c3ccc(OC(F)F)cc3)N=C(N)N(C)C2=O)cc1C#N (stereo unspecified),104 to 105
14,OCC1CCc2ncsc2C1 (stereo unspecified),176 to 182
15,ClCc1cc2ccccc2c(-c2ccccc2)c1CCl,93
16,COc1cc(OC)c2ccccc2c1O,87 to 88
17,CC(=O)C(=O)NC(=O)[C@@H](N)Cc1ccccc1,138 to 140
18,Cc1cc(Cl)ccc1OCC(=O)N1Cc2ccc(C(=O)c3ccc(C(C)(C)C)cc3)n2Cc2ccccc21,168
19,CCOC(=O)c1c(CN2CCOCC2)nc2cc(OC)c(OC)cc2c1-c1ccc(OC)c(OC)c1,146 to 147
20,COc1ccc(-c2nc3c(N)cccc3n2Cc2c(F)cccc2F)c(F)c1,200 to 202
21,CC(C)c1cccc(-c2c(Cl)ccc3c2C=C(C(=O)O)C(C(F)(F)F)O3)c1 (stereo unspecified),184 to 186
22,CCOc1ccc(C(=O)C#N)cc1,43
23,CSC(C(=O)O)c1ccsc1 (stereo unspecified),73.5 to 74
24,CC1=CC(=O)CC(C)(C)C1(O)/C=C/C(C)=C\C=O (stereo unspecified),111 to 113

row,SMILES,melting point [°C]
1,CC(=O)OCCOCn1cnc2c(Cl)nc(Cl)nc21,96 to 99
2,CNC(=O)c1sc(N2CCN(Cc3ccc(F)cc3)C2=O)nc1C,225 to 227
3,O=C1CC(c2ccccc2OCc2ccccc2)=Nc2ccc(N3CCOCC3)cc21,281 to 283
4,CCCCn1c(=O)c(NC(=O)Nc2cc(Cc3cc[nH]n3)ccc2C(C)(C)C)c(-c2cccc(OCCCO)c2)c2cccnc21,116 to 119
5,NCC1(O)CCN(CC2OCCO2)CC1,137
6,CCOC(=O)c1c(-c2cc(C)c(O)c(C)c2)c(C)n2c1-c1cc(OC)c(OC)cc1C(C)(C)C2,200 to 202
7,COc1ccc2[nH]c(C(C)=O)cc2c1,164 to 167
8,COc1nccc2cc(S(N)(=O)=O)oc12,204 to 206
9,CCNC(=O)c1ccccc1Nc1nc(Nc2ccc3c(c2)CCN(CCOC)CC3)ncc1Cl,150 to 184
10,Nc1ccc(-c2cnc(COCc3cc4ccccc4o3)o2)cc1,96 to 98
11,CCn1cnc2c(Nc3cccc(C(F)(F)F)c3)nc(Cl)nc21,129 to 130
12,O=C(c1cc2ccc(O)cc2[nH]1)N1CCC(Cc2ccccc2)CC1,214 to 215
13,COC(=O)Cn1c(C(=O)N(CCC2CCCCC2)c2nc(-c3cc(OC)c(C)cc3OC)cs2)cc2ccccc21,144 to 146
14,Cc1c2c(c(-c3ccccc3)n1C)N(C)C(=O)CN=C2c1ccccc1,232 to 234
15,COC(=O)c1ccccc1-c1ccc(OC)cn1,130 to 132
16,CC(=O)C1=C(O)C(C(=O)C=Cc2ccc(O)cc2)C(=O)OC1=O (stereo unspecified),194 to 196
17,COc1ccc(S(=O)(=O)Nc2ccccc2Nc2ncccn2)cc1,193 to 195
18,O=C(c1ccc(Br)cc1)C(Br)C(Br)c1cccc(Br)c1 (stereo unspecified),150 to 152
19,O=C(Nc1ccc(CP(=O)(O)O)cc1)c1cc(=O)c2ccccc2o1,265 to 266
20,CCN(c1nc(C)cc(-c2ccccc2Cl)n1)c1c(Br)cc(N(C)C)cc1OC,131 to 132
21,O=C1C(=O)c2ccccc2C2=C1SCC1(CCN(CCCOc3ccc(Cl)cc3)CC1)O2,130 to 132
22,CC(CO)NCc1ccc(-c2cc3ncnc(Nc4ccc5[nH]ccc5c4)c3s2)cc1 (stereo unspecified),160 to 175
23,Cc1ccc(S(=O)(=O)OC2CCC3(C)C4CCC5(C)C(=O)CCC5C4CC(O)C3(O)C2)cc1 (stereo unspecified),154 to 156
